Measured values taken from patent US7713548B2, “Amorphous solid dispersions” (sanofi-aventis U.S. LLC, priority 2005, dated 2010).

Tests used:
[1] = target: peripheral-type benzodiazepine receptors (Homo sapiens, UniProt P30536); conditions: described in U.S. Pat. No. 6,262,045 and 6,395,729; cited from earlier work
[2] = tested on: animal models of rheumatoid arthritis; experiment: Animal models of rheumatoid arthritis; type: in vivo; conditions: by modulating the immune response
[3] = Physical stability of amorphous pure drug substance; type: physicochemical; conditions: amorphous forms of the pure drug substance; crystallized over time

peripheral-type benzodiazepine receptors, sequence (P30536 whole entry): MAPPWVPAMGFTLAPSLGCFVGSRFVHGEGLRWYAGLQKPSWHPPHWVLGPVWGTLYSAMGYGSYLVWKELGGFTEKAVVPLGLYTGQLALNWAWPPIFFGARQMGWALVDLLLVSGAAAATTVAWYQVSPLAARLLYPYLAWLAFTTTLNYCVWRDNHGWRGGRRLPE

physical stability [3]: limited physical stability
SMILES: CN(C)C(=O)Cc1nn(-c2ccccc2)c(=O)c2c1c1ccc(Cl)cc1n2C [7-chloro-N,N,5-trimethyl-4-oxo-3-phenyl-3,5-dihydro-4H-pyridazino[4,5-b]indole-1-acetamide]
affinity for the peripheral-type benzodiazepine receptors [1]: high affinity
pharmacological activity in animal models of rheumatoid arthritis [2]: has shown pharmacological activity
